In article PMC6274835, “Inhibitory and Inductive Effects of Opuntia ficus indica Extract and Its Flavonoid Constituents on Cytochrome P450s and UDP-Glucuronosyltransferases” (International Journal of Molecular Sciences, 2018):
Values belong to the molecule of their own block, whether it stands above or below them.

Legend:
[1] = tested on: CYP3A1; assay: hepatic mRNA expression (qPCR) in OVX rats after 5-week oral administration; type: in vivo; conditions: OVX rat liver; E2 0.5 mg/kg/day oral, 5 weeks; vs vehicle control
[2] = tested on: UGT2B1; assay: as above; type: in vivo; conditions: OVX rat liver; E2 0.5 mg/kg/day and both doses of OFIE (250, 500 mg/kg/day) oral, 5 weeks; range over the groups
Procedure: (§1) Rats were bilaterally ovariectomized under 1.5–3% isoflurane anesthesia as described previously. […] Administration via forced gastric gavage was performed to ensure the exact amount of test compounds be dosed to each animal. […] Animals were weighed daily and dosage was changed weekly according to weight gain. Animals were euthanized by carbon dioxide inhalation to minimize aversion or distress. Liver microsomal fractions were prepared from livers of OVX rats using differential centrifugation as described previously.
(§2) The total RNA was isolated from homogenized rat liver tissue using a Nucleospin RNA/Protein kit (Macherey-Nagel, Düren, Germany) according to the manufacturer’s manual. The cDNA was synthesized from the total RNA (2 μg) using oligo (dT) and M-MLV reverse transcriptase (Promega, Madison, WI, USA). A qPCR analysis was performed to determine the mRNA levels of both hepatic CYP and UGT isozymes on an ABI Prism 7500 Sequence Detection System (Applied Biosystems, Foster City, CA, USA) using SYBR Green PCR Master Mix (Toyobo, Osaka, Japan) and a gene-specific primer set (Table S1 for primer sequences).

[3] = tested on: CYP2D1; assay: as above; type: in vivo; conditions: OVX rat liver; E2 0.5 mg/kg/day oral, 5 weeks; vs vehicle control
Procedure: as §1, §2

[4] = tested on: CYP2B1; assay: as above; type: in vivo; conditions: OVX rat liver; E2 0.5 mg/kg/day oral, 5 weeks; vs vehicle control
Procedure: After 14 days of endogenous hormonal decline, rats were randomly divided into several groups (n = 6 per group) and subjected to oral administration of olive oil (control), E2 (0.5 mg/kg/day, positive control) or OFIE (250 and 500 mg/kg/day) via gastric gavage for 5 weeks. […] Administration via forced gastric gavage was performed to ensure the exact amount of test compounds be dosed to each animal. […] Animals were weighed daily and dosage was changed weekly according to weight gain.
The total RNA was isolated from homogenized rat liver tissue using a Nucleospin RNA/Protein kit (Macherey-Nagel, Düren, Germany) according to the manufacturer’s manual. The cDNA was synthesized from the total RNA (2 μg) using oligo (dT) and M-MLV reverse transcriptase (Promega, Madison, WI, USA). A qPCR analysis was performed to determine the mRNA levels of both hepatic CYP and UGT isozymes on an ABI Prism 7500 Sequence Detection System (Applied Biosystems, Foster City, CA, USA) using SYBR Green PCR Master Mix (Toyobo, Osaka, Japan) and a gene-specific primer set (Table S1 for primer sequences). The ABI 7500 Software (v2.0.6, Foster City, CA, USA) was used for the estimation of CT. The 2^−ΔΔCt method was applied for relative quantification. […] The results were expressed as fold change when the gene expression level in the vehicle control-treated sample was set as 1.

[5] = tested on: UGT isoforms; assay: ex vivo activity assay in liver microsomes of orally treated OVX rats; set-up: species or system rat; conditions: E2 0.5 mg/kg/day oral, 5 weeks
Procedure: (§3) Rats were bilaterally ovariectomized under 1.5-3% isoflurane anesthesia as described previously. […] Administration via forced gastric gavage was performed to ensure the exact amount of test compounds be dosed to each animal. […] Animals were weighed daily and dosage was changed weekly according to weight gain. Animals were euthanized by carbon dioxide inhalation to minimize aversion or distress. Liver microsomal fractions were prepared from livers of OVX rats using differential centrifugation as described previously. […] The HPLC system (Agilent, Santa Clara, CA, USA) consisted of an Agilent 1200 binary pump, DAD, and Agilent 1260 autosampler. A Kinetex C18 reverse-phase column (5 μm, 4.6 × 150 mm) (Phenomenex, Torrance, CA, USA) protected by a KrudKatcher Ultra HPLC in-line filter (Phenomenex) was used for separation. HPLC conditions to determine the isozyme-specific metabolites and major constituents in OFIE are described in the Supplementary Materials. LC-electrospray (ESI)-tandem mass spectrometry (MS^2) analysis was employed to detect glucuronide products. An Linear Trap Quadropole (LTQ) linear ion trap mass spectrometer (Thermo Scientific, Waltham, MA, USA) with an ESI source was coupled with an Agilent 1200 HPLC system.

[6] = tested on: CYP2B1; assay: as above; set-up: species or system rat; conditions: E2 0.5 mg/kg/day oral, 5 weeks, control group set as 1
Procedure: as §3

[7] = target: T1, human pregnane X receptor (hPXR) (Homo sapiens, UniProt O75469); assay: PXR-mediated CYP3A4 promoter luciferase reporter assay in HepG2 cells; type: cell-based; conditions: 24 h, vs DMSO; for induction in the PXR promoter activity: individual flavonoids 10 μM
T1 construct: expressed in transfected cells; host or cells: HepG2
T1 sequence (O75469 1-434): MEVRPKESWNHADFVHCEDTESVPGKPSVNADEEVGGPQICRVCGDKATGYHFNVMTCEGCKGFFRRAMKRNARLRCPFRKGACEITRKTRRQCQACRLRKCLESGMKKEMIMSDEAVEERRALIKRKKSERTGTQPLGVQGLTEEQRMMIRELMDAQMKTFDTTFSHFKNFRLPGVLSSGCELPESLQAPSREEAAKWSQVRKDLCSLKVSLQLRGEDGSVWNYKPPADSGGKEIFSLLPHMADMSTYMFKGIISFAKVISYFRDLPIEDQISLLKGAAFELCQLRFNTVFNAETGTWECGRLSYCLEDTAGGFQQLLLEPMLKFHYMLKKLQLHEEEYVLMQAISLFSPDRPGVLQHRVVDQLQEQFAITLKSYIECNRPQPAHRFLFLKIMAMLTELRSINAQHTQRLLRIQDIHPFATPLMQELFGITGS
Procedure: The human hepatocarcinoma cell line HepG2 was purchased from the […] (Manassas, VA, USA) and maintained in Dulbecco’s modified Eagle’s essential medium (DMEM) containing 10% fetal bovine serum, 1% nonessential amino acids, 1% GlutaMAX, and 1% antibiotics/antimycotics in a 5% CO2 atmosphere at 37 °C.
The expression plasmid for human constitutive androstane receptor (hCAR; pcDNA3-CAR) and pGL3-CYP2B6 luciferase construct were kindly provided by Dr. Hongbing Wang (University of Maryland, College Park, MD, USA). The plasmid for human pregnane X receptor (hPXR; pcDNA3-PXR) and pGL3-CYP3A4 luciferase construct were generous gifts from Masahiko Negishi (National Institutes of Health, Bethesda, MD, USA). HepG2 cells were seeded at a density of 1.5 × 10^5 cells/well into a 24-well plate. On the next day, the cells were transfected with 0.25 μg of either pcDNA3-CAR or pcDNA3-PXR and 0.25 μg of promoter luciferase plasmid (i.e., either pGL3-CYP2B6 or pGL3-CYP3A4) using Lipofectamine 2000 (Invitrogen, Carlsbad, CA, USA) according to the manufacturer’s instructions. To normalize the transfection efficiency, the pRL-TK plasmid (0.25 μg/well; Promega), which contains cDNA encoding Renilla luciferase, was cotransfected. The transfected cells were grown for 24 h, treated with various test materials, and incubated for an additional 24 h. The luciferase activities in the cell lysates were measured using the dual luciferase assay system (Promega) with a SpectraMax i3x (Molecular Devices, San Jose, CA, USA). Data are reported as a relative luciferase activity, which is the firefly luciferase reading divided by the Renilla luciferase reading.

[8] = target: T2, human constitutive androstane receptor (hCAR) (Homo sapiens, UniProt Q14994); assay: CAR-mediated CYP2B6 promoter luciferase reporter assay in HepG2 cells; type: cell-based; conditions: E2, concentration not given, 24 h, vs DMSO
T2 construct: expressed in transfected cells; host or cells: HepG2
T2 sequence (Q14994 1-352): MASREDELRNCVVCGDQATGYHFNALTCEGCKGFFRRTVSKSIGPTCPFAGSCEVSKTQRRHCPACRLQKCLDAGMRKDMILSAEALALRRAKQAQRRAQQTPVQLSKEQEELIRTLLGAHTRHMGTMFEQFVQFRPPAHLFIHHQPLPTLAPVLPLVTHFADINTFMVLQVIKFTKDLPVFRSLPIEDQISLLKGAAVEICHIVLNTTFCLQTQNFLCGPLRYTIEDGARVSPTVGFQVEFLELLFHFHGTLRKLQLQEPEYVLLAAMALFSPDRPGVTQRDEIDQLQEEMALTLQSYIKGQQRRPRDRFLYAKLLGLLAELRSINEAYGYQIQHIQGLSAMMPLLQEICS

[9] = target: T3, CYP1A2 (Homo sapiens, UniProt P05177); assay: CYP inhibition assay in human liver microsomes; type: in vitro ADME; conditions: pooled human liver microsomes, individual constituents 10 μM; for inhibition at 60 min, 10 μM: pH 7.4
T3 construct: tissue Corning 452117; host or cells: pooled human liver microsomes (150 donors)
T3 sequence (P05177 1-516): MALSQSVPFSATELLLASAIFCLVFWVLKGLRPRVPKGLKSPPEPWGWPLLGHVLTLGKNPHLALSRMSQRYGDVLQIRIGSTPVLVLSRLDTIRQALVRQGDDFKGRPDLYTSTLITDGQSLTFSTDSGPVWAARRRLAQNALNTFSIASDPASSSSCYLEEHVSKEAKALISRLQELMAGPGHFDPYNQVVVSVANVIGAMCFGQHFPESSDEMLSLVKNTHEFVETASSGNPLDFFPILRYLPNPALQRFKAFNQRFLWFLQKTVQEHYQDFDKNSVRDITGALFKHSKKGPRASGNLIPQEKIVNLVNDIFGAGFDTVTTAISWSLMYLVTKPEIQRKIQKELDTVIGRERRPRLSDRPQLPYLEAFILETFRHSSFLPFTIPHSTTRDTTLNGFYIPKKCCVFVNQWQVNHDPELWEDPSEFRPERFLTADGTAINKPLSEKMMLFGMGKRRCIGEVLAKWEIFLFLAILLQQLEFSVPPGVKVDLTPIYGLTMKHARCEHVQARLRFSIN
Procedure: (§4) CYP-mediated metabolite formation from a substrate (200 μM each) or the formation of glucuronide conjugates from the UGT isozyme-specific substrate (200 μM each) was monitored to determine the isozyme activity. Typical incubation was performed with rat (1 mg/mL) or human (0.5 mg/mL) liver microsomes in the presence of an appropriate cofactor in a buffer system (pH 7.4) at 37 °C for 60 min as described previously.
The HPLC system (Agilent, Santa Clara, CA, USA) consisted of an Agilent 1200 binary pump, DAD, and Agilent 1260 autosampler. A Kinetex C18 reverse-phase column (5 μm, 4.6 × 150 mm) (Phenomenex, Torrance, CA, USA) protected by a KrudKatcher Ultra HPLC in-line filter (Phenomenex) was used for separation. […] LC-electrospray (ESI)-tandem mass spectrometry (MS^2) analysis was employed to detect glucuronide products. An Linear Trap Quadropole (LTQ) linear ion trap mass spectrometer (Thermo Scientific, Waltham, MA, USA) with an ESI source was coupled with an Agilent 1200 HPLC system.

[10] = tested on: CYP2C11; assay: CYP inhibition assay in OVX rat liver microsomes; type: in vitro ADME; conditions: for inhibition at 60 min, 10 μM: female, liver microsomes from ovariectomized (OVX) rats, pH 7.4, individual constituents 10 μM
Procedure: as §4
(§5) The HPLC system (Agilent, Santa Clara, CA, USA) consisted of an Agilent 1200 binary pump, DAD, and Agilent 1260 autosampler. A Kinetex C18 reverse-phase column (5 μm, 4.6 × 150 mm) (Phenomenex, Torrance, CA, USA) protected by a KrudKatcher Ultra HPLC in-line filter (Phenomenex) was used for separation. HPLC conditions to determine the isozyme-specific metabolites and major constituents in OFIE are described in the Supplementary Materials. LC-electrospray (ESI)-tandem mass spectrometry (MS^2) analysis was employed to detect glucuronide products. An Linear Trap Quadropole (LTQ) linear ion trap mass spectrometer (Thermo Scientific, Waltham, MA, USA) with an ESI source was coupled with an Agilent 1200 HPLC system.

[11] = tested on: CYP3A1; assay: CYP inhibition assay in OVX rat liver microsomes; type: in vitro ADME; conditions: female, liver microsomes from ovariectomized (OVX) rats, pH 7.4, individual constituents 10 μM
Procedure: as §4, §5

[12] = target: T4, CYP3A4 (Homo sapiens, UniProt P08684); set-up: method as in earlier work; conditions: range given jointly for quercetin and kaempferol on CYP1A2 and CYP3A4; Von Moltke et al.; read-out: IC50, inhibition of CYP3A4; cited from earlier work
T4 construct: tissue Corning 452117; host or cells: pooled human liver microsomes (150 donors)
T4 sequence (P08684 whole entry): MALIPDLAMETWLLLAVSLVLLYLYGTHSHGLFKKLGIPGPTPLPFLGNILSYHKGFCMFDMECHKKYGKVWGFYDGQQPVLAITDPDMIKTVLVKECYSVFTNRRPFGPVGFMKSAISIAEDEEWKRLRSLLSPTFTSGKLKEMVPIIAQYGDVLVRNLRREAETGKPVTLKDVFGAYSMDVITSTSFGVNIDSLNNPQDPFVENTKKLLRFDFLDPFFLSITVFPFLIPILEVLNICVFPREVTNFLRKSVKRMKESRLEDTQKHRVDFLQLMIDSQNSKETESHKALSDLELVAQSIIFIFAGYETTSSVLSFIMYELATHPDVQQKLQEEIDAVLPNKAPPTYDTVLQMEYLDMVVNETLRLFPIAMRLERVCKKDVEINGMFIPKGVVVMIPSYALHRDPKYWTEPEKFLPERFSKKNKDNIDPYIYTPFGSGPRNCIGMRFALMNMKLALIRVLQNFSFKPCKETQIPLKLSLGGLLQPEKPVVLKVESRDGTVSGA

- increase in mRNA expression of CYP3A1 [1]: 12 fold
- increase in mRNA expression of CYP2D1 [3]: 2.6 fold
- increase in mRNA expression of CYP2B1 [4]: 7.7 fold
- increase in activity of CYP2B1 [6]: 2.7 fold
- PXR-mediated CYP3A4 reporter activity ([7]; E2, concentration not given): did not alter
- increase in CAR-mediated CYP2B6 reporter activity [8]: 4.8 fold
SMILES: C[C@]12CC[C@@H]3c4ccc(O)cc4CC[C@H]3[C@@H]1CC[C@@H]2O [E2, 17β-Estradiol]
- increased expression of UGT2B1 mRNA [2]: 3.8–6.5 folds
- change in activities of all UGT isoforms examined [5]: no changes

SMILES: COc1cc(-c2oc3cc(O)cc(O)c3c(=O)c2O)ccc1O [isorhamnetin]
- inhibition at 60 min, 10 μM [9]: 40%
- inhibition of rat CYP2C11 activity ([10]; individual constituents 10 μM): did not result in a significant inhibition

- inhibition at 60 min, 10 μM [11]: 20%
- inhibition at 60 min, 10 μM [10]: 10%
SMILES: O=c1c(O)c(-c2ccc(O)cc2)oc2cc(O)cc(O)c12 [kaempferol]
- IC50 [12]: 10 to 16 µM

- inhibition of human CYP1A2 activity [9]: did not significantly inhibit
- inhibition at 60 min, 10 μM [11]: 10%
- induction in the PXR promoter activity [7]: significant induction
SMILES: COc1cc(-c2oc3cc(O)cc(O)c3c(=O)c2O[C@@H]2O[C@H](CO[C@@H]3O[C@@H](C)[C@H](O)[C@@H](O)[C@H]3O)[C@@H](O)[C@H](O)[C@H]2O)ccc1O [narcissin]

- inhibition at 60 min, 10 μM [9]: 31%
- inhibition at 60 min, 10 μM [11]: 10%
- inhibition at 60 min, 10 μM [10]: 18%
SMILES: O=c1c(O)c(-c2ccc(O)c(O)c2)oc2cc(O)cc(O)c12 [quercetin]

SMILES: C[C@@H]1O[C@@H](OC[C@H]2O[C@@H](Oc3c(-c4ccc(O)c(O)c4)oc4cc(O)cc(O)c4c3=O)[C@H](O)[C@@H](O)[C@@H]2O)[C@H](O)[C@H](O)[C@H]1O [rutin]
- induction in the PXR promoter activity [7]: significant induction
